Data reported in patent US12692249B2, “WDR5 inhibitors and modulators” (Vanderbilt University, priority 2019, dated 2026).
Like-named read-outs stand apart in the source and are kept apart here.

Columns and labels:
[1] = biological target: WDR5 (Homo sapiens, UniProt P61964); test: TR-FRET competition binding assay, displacement of 10mer-Thr-FAM MLL peptide probe from His-tagged WDR5; settings: WDR5-His tag (residues 24-334) 2 nM; 10mer-Thr-FAM 150 nM; 60 min, room temperature; read-out: Ki for Inhibition of WDR5 by TR-FRET assay
[2] = test system: MV4:11 human cancer cell lines; test: Cellular viability / anti-proliferative assay, CellTiter-Glo, 5 day protocol; format: cell-based; settings: Homo sapiens, MV4-11, 120 h, read-out: GI50 on cellular proliferation of MV4:11 human cancer cell lines
How it was run: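 Luminescent ATP-based viability (CellTiter-Glo) after a 5-day exposure gave GI50 via sigmoidal fitting, averaged over two or more replicates. Compounds spanned 22 two-fold steps down from 30 μM at 0.3% DMSO, on 200 MV-4-11 cells per well grown in IMDM plus 10% FBS.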

[3] = MV4:11 cells, 5 day incubation, CellTiter-Glo, mean of at least two replicates

| Ki [1] [nM] | GI50 [2, 3] [nM] | Compound | GI50 [2] [nM] |
| --- | --- | --- | --- |
| < 0.02 | < 20 | CCc1cc(C(=O)NCCNC(=O)c2ccncc2)c2nccc(N3CCc4c(cc(Cn5ccnc5)cc4-c4cn(C)nc4C(F)(F)F)C3=O)c2c1 [Example 213, 4-(7-((1H-imidazol-1-yl)methyl)-5-(1-methyl-3-(trifluoromethyl)-1H-pyrazol-4-yl)-1-oxo-3,4-dihydroisoquinolin-2(1H)-yl)-6-ethyl-N-(2-(isonicotinamido)ethyl)quinoline-8-carboxamide] | – |
| < 0.02 | < 20 | COc1cnc2cncc(N3CCc4c(cc(Cn5ccnc5)cc4-c4cn(C)nc4C(F)(F)F)C3=O)c2c1 [Example 214, 7-((1H-imidazol-1-yl)methyl)-2-(3-methoxy-1,7-naphthyridin-5-yl)-5-(1-methyl-3-(trifluoromethyl)-1H-pyrazol-4-yl)-3,4-dihydroisoquinolin-1(2H)-one] | – |
| < 0.02 | < 20 | CCc1cc(C(=O)NCCNC(=O)c2cscn2)c2nccc(N3CCc4c(cc(Cn5ccnc5)cc4-c4cn(C)nc4C(F)(F)F)C3=O)c2c1 [Example 216, N-(2-(4-(7-((1H-Imidazol-1-yl)methyl)-5-(1-methyl-3-(trifluoromethyl)-1H-pyrazol-4-yl)-1-oxo-3,4-dihydroisoquinolin-2(1H)-yl)-6-ethylquinoline-8-carboxamido)ethyl)thiazole-4-carboxamide] | – |
| < 0.02 | 21 | CCc1cc(C(=O)NCC2CN(C(C)=O)C2)c2nccc(N3CCc4c(cc(Cn5ccnc5)cc4-c4cn(C)nc4C(F)(F)F)C3=O)c2c1 [Example 218, 4-(7-((1H-Imidazol-1-yl)methyl)-5-(1-methyl-3-(trifluoromethyl)-1H-pyrazol-4-yl)-1-oxo-3,4-dihydroisoquinolin-2(1H)-yl)-N-((1-acetylazetidin-3-yl)methyl)-6-ethylquinoline-8-carboxamide] | – |
| < 0.02 | < 20 | CCc1cc(C(=O)NCC2CN(C(=O)c3ccncc3)C2)c2nccc(N3CCc4c(cc(Cn5ccnc5)cc4-c4cn(C)nc4C(F)(F)F)C3=O)c2c1 [Example 219, 4-(7-((1H-Imidazol-1-yl)methyl)-5-(1-methyl-3-(trifluoromethyl)-1H-pyrazol-4-yl)-1-oxo-3,4-dihydroisoquinolin-2(1H)-yl)-6-ethyl-N-((1-isonicotinoylazetidin-3-yl)methyl)quinoline-8-carboxamide] | – |
| < 0.02 | < 20 | CCc1cc(C(=O)NCC2CN(C(=O)c3cscn3)C2)c2nccc(N3CCc4c(cc(Cn5ccnc5)cc4-c4cn(C)nc4C(F)(F)F)C3=O)c2c1 [Example 220, 4-(7-((1H-Imidazol-1-yl)methyl)-5-(1-methyl-3-(trifluoromethyl)-1H-pyrazol-4-yl)-1-oxo-3,4-dihydroisoquinolin-2(1H)-yl)-6-ethyl-N-((1-(thiazole-4-carbonyl)azetidin-3-yl)methyl)quinoline-8-carboxamide] | – |
| 0.024 | < 20 | COc1cnc2cc(C)cc(N3CCc4c(cc(Cn5ccnc5N)cc4-c4cn(C)nc4C(F)(F)F)C3=O)c2c1 [Example 221, 7-((2-Amino-1H-imidazol-1-yl)methyl)-2-(3-methoxy-7-methylquinolin-5-yl)-5-(1-methyl-3-(trifluoromethyl)-1H-pyrazol-4-yl)-3,4-dihydroisoquinolin-1(2H)-one] | – |
| < 0.02 | < 20 | CCc1cc(C(=O)NC2CN(C(=O)C3CCOCC3)C2)c2nccc(N3CCc4c(cc(Cn5ccnc5)cc4-c4cn(C)nc4C(F)(F)F)C3=O)c2c1 [Example 223, 4-(7-((1H-Imidazol-1-yl)methyl)-5-(1-methyl-3-(trifluoromethyl)-1H-pyrazol-4-yl)-1-oxo-3,4-dihydroisoquinolin-2(1H)-yl)-6-ethyl-N-(1-(tetrahydro-2H-pyran-4-carbonyl)azetidin-3-yl)quinoline-8-carboxamide] | – |
| < 0.02 | < 20 | CCc1cc(C(=O)NC2CN(C(=O)c3cscn3)C2)c2nccc(N3CCc4c(cc(Cn5ccnc5)cc4-c4cn(C)nc4C(F)(F)F)C3=O)c2c1 [Example 228, 4-(7-((1H-Imidazol-1-yl)methyl)-5-(1-methyl-3-(trifluoromethyl)-1H-pyrazol-4-yl)-1-oxo-3,4-dihydroisoquinolin-2(1H)-yl)-6-ethyl-N-(1-(thiazole-4-carbonyl)azetidin-3-yl)quinoline-8-carboxamide] | – |
| < 0.02 | 38 | CCc1cc(-c2cnn(C)c2)c2nccc(N3CCc4c(cc(Cn5ccnc5)cc4-c4cn(C)nc4C(F)(F)F)C3=O)c2c1 [Example 232, 7-((1H-Imidazol-1-yl)methyl)-2-(6-ethyl-8-(1-methyl-1H-pyrazol-4-yl)quinolin-4-yl)-5-(1-methyl-3-(trifluoromethyl)-1H-pyrazol-4-yl)-3,4-dihydroisoquinolin-1(2H)-one] | – |
| < 0.02 | 26 | CCc1cc(C(=O)NCC2CN(C(=O)C3CCOCC3)C2)c2nccc(N3CCc4c(cc(Cn5ccnc5)cc4-c4cn(C)nc4C(F)(F)F)C3=O)c2c1 [Example 233, 4-(7-((1H-Imidazol-1-yl)methyl)-5-(1-methyl-3-(trifluoromethyl)-1H-pyrazol-4-yl)-1-oxo-3,4-dihydroisoquinolin-2(1H)-yl)-6-ethyl-N-((1-(tetrahydro-2H-pyran-4-carbonyl)azetidin-3-yl)methyl)quinoline-8-carboxamide] | – |
| < 0.02 | 51 | CNC(=O)c1cc(N2CCc3c(cc(Cn4ccnc4)cc3-c3cn(C)nc3C(F)(F)F)C2=O)c2cc(OC)ccc2n1 [Example 237, 4-(7-((1H-Imidazol-1-yl)methyl)-5-(1-methyl-3-(trifluoromethyl)-1H-pyrazol-4-yl)-1-oxo-3,4-dihydroisoquinolin-2(1H)-yl)-6-methoxy-N-methylquinoline-2-carboxamide] | – |
| < 0.02 | 30 | CCc1cc(CN(C)C(C)=O)c2nccc(N3CCc4c(cc(Cn5ccnc5)cc4-c4cn(C)nc4C(F)(F)F)C3=O)c2c1 [Example 238] | – |
| < 0.02 | 23 | CCc1cc(CNC(C)=O)c2nccc(N3CCc4c(cc(Cn5ccnc5)cc4-c4cn(C)nc4C(F)(F)F)C3=O)c2c1 [Example 240, N-((4-(7-((1H-Imidazol-yl)methyl)-5-(1-methyl-3-(trifluoromethyl)-1H-pyrazol-4-yl)-1-oxo-3,4-dihydroisoquinolin-2(1H)-yl)-6-ethylquinolin-8-yl)methyl)acetamide] | – |
| < 0.02 | 29 | COc1cc(C(=O)NC2CN(C(=O)c3ccncc3)C2)c2nccc(N3CCc4c(cc(Cn5ccnc5)cc4-c4cn(C)nc4C(F)(F)F)C3=O)c2c1 [Example 242, 4-(7-((1H-Imidazol-1-yl)methyl)-5-(1-methyl-3-(trifluoromethyl)-1H-pyrazol-4-yl)-1-oxo-3,4-dihydroisoquinolin-2(1H)-yl)-N-(1-isonicotinoylazetidin-3-yl)-6-methoxyquinoline-8-carboxamide] | – |

| Compound | Ki [1] [nM] | GI50 [2, 3] [nM] | GI50 [2] [nM] |
| --- | --- | --- | --- |
| CCc1cc(N)c2nccc(N3CCc4c(cc(Cn5ccnc5)cc4-c4cn(C)nc4C(F)(F)F)C3=O)c2c1 [Example 230, 7-((1H-Imidazol-1-yl)methyl)-2-(8-amino-6-ethylquinolin-4-yl)-5-(1-methyl-3-(trifluoromethyl)-1H-pyrazol-4-yl)-3,4-dihydroisoquinolin-1(2H)-one] | < 0.02 | – | 54 |
